The target of one experiment is STAT3/DNA binding. Also noted: method as in PMID 18668431. Conditions: read-out: IC50 value, inhibition of STAT3/DNA binding; cited from earlier work.
In another experiment the test system is A431 cells. Nature of the experiment: IC50 on A431 cells (xCelligence RTCA cell index). The experiment is classed as cell-based. Conditions: Homo sapiens, A-431. From the text: A431 cells are characterized by a high inducibility of transcription factors STAT3 and STAT5. In turn, phaeosphaeride A and its derivatives are probably inhibitors of the STAT3 gene. Therefore, the A431 cell line was chosen as a model for searching for possible targets for the action of phaeosphaeride A derivatives. Table 7 presents IC50 data for phaeosphaeride A derivatives on A431 cells.
(§1) The effect of various concentrations of PPA derivatives on the cell culture was studied using xCelligence RTCA equipment (AceaBioscience, San Diego, CA, USA). The concentration closest to the IC50 (10 μM) was chosen as the experimental concentration. The selected concentration of phaeosphaeride A derivatives allows for the assessment of the early effect of compounds on cells and compares their effectiveness. In this experiment, the signaling pathways Akt (pSer473), p70S6K (pThr412), NFkB (p65-pSer536), and CREB (pSer133) were not activated (Table 8). The stress-activated signaling pathways ERK/MAP kinase 1/2 (pThr185/pTyr187), JNK (pThr183/pTyr185), and p38 (pThr180/pTyr182) were activated for these compounds.
To determine the integral cellular response using the xCelligence RTCA equipment (AceaBioscience, Santa Clara, CA, USA), 20 thousand cells were inoculated into a well of a specialized plate allowing the determination of the cell index in real time and cultured in complete growth medium. The next day after the seeding, the medium was replaced with an experimental one (compounds at concentrations of […]). The cell index was monitored for 3 days after the addition of the xenobiotic. The concentration closest to the IC50 (10 μM) was chosen as the experimental concentration.

For another experiment, the system named is CREB (pSer133). Nature of the experiment: MILLIPLEX MAP 9-Plex, CREB active form in A431 lysates. The experiment is classed as cell-based, human. Conditions: A431 cell lysates, 10 μM, 1 h, M ± mx; control 154.5 ± 34.2.
Text: (§2) We used the MILLIPLEX MAP Multi-Pathway Magnetic Bead 9-Plex-Cell Signaling Multiplex Assay, which allows the simultaneous detection of nine phosphorylated proteins that are markers of the main intracellular signaling pathways (phosphorylation site is indicated in parentheses), a universal transcription factor that controls the expression of immune response genes; apoptosis and cell cycle NFκB (pS536); cAMP-dependent transcription factor (CREB (pS133); mitogen-activated kinase p38 (pT180/pY182); stress-activated protein kinase JNK (pT183/pY185); ribosomal […]; transcription factors STAT3 (pS727) and STAT5A/B (pY694/699); protein kinase B (Akt) (pS473); and kinase regulated by extracellular signals ERK1/2 (pT185/pY187).
as §1
(§3) We used a MILLIPLEX MAP Multi-Pathway Magnetic Bead 9-Plex-Cell Signaling Multiplex Assay kit (Merck/Millipore), according to the manufacturer’s protocol. A431 cells were cultured in DMEM with 10% FBS in 24-well plates. Compounds were added to the subconfluent cells at a concentration of 10 μM in DMEM medium for 1 h. Each compound was added in 5 experimental repeats. Cell lysates were prepared with lysis buffer (Millipore) with protease inhibitors (Complete, Roche); the protein concentration in the lysates was determined by the Lowry method. In samples equalized in protein concentration, the active forms of kinase cascades were determined using a Bio-Plex 200 fluorescent analyzer (Bio-Rad).

Experiment [1] relates to ERK 1/2 (pThr185/pTyr187). Nature of the experiment: MILLIPLEX MAP 9-Plex, ERK 1/2 active form in A431 lysates. The experiment is classed as cell-based, human. Conditions: 10 μM.
Text: as §2, §1, §3

In the next experiment the test system is STAT3 (pSer727). The experiment can be described thus: MILLIPLEX MAP 9-Plex, STAT3 active form in A431 lysates. The format is cell-based, human. Conditions: A431 cell lysates, 10 μM, 1 h, M ± mx; control 70.7 ± 18.3.
Text: as §2, §1, §3

The next experiment concerns STAT5 (pTyr694/699). Nature of the experiment: MILLIPLEX MAP 9-Plex, STAT5 active form in A431 lysates. The format is cell-based, human. Conditions: A431 cell lysates, 10 μM, 1 h, M ± mx; control 44.2 ± 10.2.
Text: as §2, §1, §3

Another experiment concerns Akt (pSer473). The experiment can be described thus: MILLIPLEX MAP 9-Plex, Akt active form in A431 lysates. The format is cell-based, human. Conditions: A431 cell lysates, 10 μM, 1 h, M ± mx; control 76.4 ± 16.9.
Text: as §2, §1, §3

The next experiment has as its system JNK (pThr183/pTyr185). The experiment can be described thus: MILLIPLEX MAP 9-Plex, JNK active form in A431 lysates. The format is cell-based, human. Conditions: 10 μM.
Text: as §2, §1, §3

The next experiment deals with p38 (pThr180/pTyr182). The experiment can be described thus: MILLIPLEX MAP 9-Plex, p38 active form in A431 lysates. The format is cell-based, human. Conditions: 10 μM.
Text: as §2, §1, §3

The next experiment has as its system p70S6K (pThr389/412). Nature of the experiment: MILLIPLEX MAP 9-Plex, p70S6K active form in A431 lysates. The experiment is classed as cell-based, human. Conditions: A431 cell lysates, 10 μM, 1 h, M ± mx; control 39.9 ± 7.2.
Text: as §2, §1, §3

On to `C=C1C2=C(C(=O)N1OC)[C@H](O)[C@@](C)(O)[C@H](CCCCC)O2` [PPA, phaeosphaeride A], for which the IC50 on STAT3/DNA binding was 610 µM; in the experiment on A431 cells it was more than 50 µM. Also, in the experiment on CREB (pSer133), the “CREB (pSer133) fluorescence intensity” value is given as 291.0 ± 32.8 *↑ rel. units. In [1] (A431 cell lysates, 1 h, M ± mx, control 839.7 ± 248.9), the “ERK ½ (pThr185/pTyr187) fluorescence intensity” value is reported as 995.4 ± 46.5 rel. units. For the same molecule, the “activation of signaling pathway ERK/MAP kinase 1/2 (pThr185/pTyr187), in words” value in experiment [1] (A431 cells) was “only slightly activated”. Further, the “STAT3 (pSer727) fluorescence intensity” value in the experiment on STAT3 (pSer727) is recorded as 128.8 ± 2.4 *↑ rel. units. Moreover, in the experiment on STAT5 (pTyr694/699), the “STAT5 (pTyr694/699) fluorescence intensity” value is recorded as 82.5 ± 3.5 *↑ rel. units. Besides, the “Akt (pSer473) fluorescence intensity” value in the experiment with Akt (pSer473) is recorded as 123.5 ± 4.9 *↑ rel. units. For the same molecule, the “JNK (pThr183/pTyr185) fluorescence intensity” value in the experiment on JNK (pThr183/pTyr185) (A431 cell lysates, 1 h, M ± mx, control 50.9 ± 10.5) was 132.8 ± 9.1 *↑ rel. units. In the experiment on JNK (pThr183/pTyr185) (A431 cells), the “activation of signaling pathway JNK (pThr183/pTyr185), in words” value was “only slightly activated”. Also, the “p38 (pThr180/pTyr182) fluorescence intensity” value in the experiment with p38 (pThr180/pTyr182) (A431 cell lysates, 1 h, M ± mx, control 567.7 ± 266.6) is 1459.1 ± 117.6 *↑ rel. units. Also, the “activation of signaling pathway p38 (pThr180/pTyr182), in words” value in the experiment on p38 (pThr180/pTyr182) (A431 cells) was “only slightly activated”. In addition, the “p70S6K (pThr389/412) fluorescence intensity” value with p70S6K (pThr389/412) is 46.1 ± 2.9 rel. units.

(Values after PMC9030166, “Natural Phaeosphaeride A Derivatives Overcome Drug Resistance of Tumor Cells and Modulate Signaling Pathways” (Pharmaceuticals, 2022).)
